Source: PMC2779455, “The E3 Ubiquitin-Ligase Bmi1/Ring1A Controls the Proteasomal Degradation of Top2α Cleavage Complex – A Potentially New Drug Target” (PLoS ONE, 2009)

Target: T1, Ring1A (Homo sapiens, UniProt Q06587)
T1 construct: gene RING1; recombinant GST fusion of Ring1A (N-terminal HA tag, C-terminal six-histidine tag) in complex with GST-Bmi1, from E. coli; with Bmi1
T1 sequence (Q06587 1-406): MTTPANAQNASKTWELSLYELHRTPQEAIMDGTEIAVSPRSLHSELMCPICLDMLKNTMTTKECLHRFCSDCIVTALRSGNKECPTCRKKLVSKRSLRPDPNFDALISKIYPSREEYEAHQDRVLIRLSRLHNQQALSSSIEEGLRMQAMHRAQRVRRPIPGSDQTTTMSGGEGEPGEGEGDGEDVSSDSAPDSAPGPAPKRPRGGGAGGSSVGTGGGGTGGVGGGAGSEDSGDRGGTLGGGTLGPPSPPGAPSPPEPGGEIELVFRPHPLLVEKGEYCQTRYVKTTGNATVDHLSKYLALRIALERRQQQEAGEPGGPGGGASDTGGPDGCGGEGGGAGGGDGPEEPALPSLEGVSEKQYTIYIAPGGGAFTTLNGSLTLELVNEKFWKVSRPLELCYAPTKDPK
T1 sequence (P35226 1-326 partner): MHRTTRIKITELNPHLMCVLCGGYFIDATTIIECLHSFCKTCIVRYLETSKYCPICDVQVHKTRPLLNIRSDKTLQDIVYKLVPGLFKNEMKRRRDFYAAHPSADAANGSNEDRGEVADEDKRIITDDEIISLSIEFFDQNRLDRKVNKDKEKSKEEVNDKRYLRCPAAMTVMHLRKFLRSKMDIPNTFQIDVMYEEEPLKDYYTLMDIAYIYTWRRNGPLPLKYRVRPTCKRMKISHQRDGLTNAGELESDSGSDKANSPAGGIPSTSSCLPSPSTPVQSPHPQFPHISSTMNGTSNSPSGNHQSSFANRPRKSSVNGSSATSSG
Test: cell-free HTRF ubiquitination assay (E1, UbcH5a, Flag-ubiquitin), confirmed by gel-based Western blot
Type: biochemical

O=C1C(=Cc2cccnc2)C(=O)c2ccccc21 [PRT4165]
IC50: 3.9 µM
